The target in the test is T1, cloned human H3 receptors (Homo sapiens, UniProt Q9Y5N1).
T1 construct: expressed in transfected cells; host or cells: SK-N-MC cells
Put plainly: H3 Receptor Binding (Human). The note with it: cloned human H3 receptors stably expressed in SK-N-MC cells; average of the results obtained. How it is done: Binding of compounds to the cloned human H3 receptors, stably expressed in SK-N-MC cells, was performed as described by Barbier, A. J. et al. (Br. J. Pharmacol. 2004, 143(5), 649-661). Data for compounds tested in this assay are presented in Table 1 as an average of the results obtained.

T1 sequence (Q9Y5N1 whole entry): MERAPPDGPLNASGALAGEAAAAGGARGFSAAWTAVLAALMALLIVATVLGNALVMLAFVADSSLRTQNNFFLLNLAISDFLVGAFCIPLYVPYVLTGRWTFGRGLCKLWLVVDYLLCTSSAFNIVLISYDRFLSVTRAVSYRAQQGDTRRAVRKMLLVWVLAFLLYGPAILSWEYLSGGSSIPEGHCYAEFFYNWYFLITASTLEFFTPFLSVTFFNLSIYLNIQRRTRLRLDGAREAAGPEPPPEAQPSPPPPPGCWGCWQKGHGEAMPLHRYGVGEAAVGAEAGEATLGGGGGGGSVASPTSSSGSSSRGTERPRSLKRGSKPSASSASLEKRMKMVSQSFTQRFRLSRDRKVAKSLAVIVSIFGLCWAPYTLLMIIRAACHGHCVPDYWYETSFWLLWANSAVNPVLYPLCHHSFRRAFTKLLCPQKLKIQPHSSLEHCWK

Broadly, the Ki is a measure of affinity in units of concentration, obtained from inhibition or displacement. A low value points to tighter binding. `CC(C)(C)C(=O)N1CCc2cc(C(=O)N3CCN(C4CCC4)CC3)ccc2C1` [Example 41, 1-[6-(4-Cyclobutyl-piperazine-1-carbonyl)-3,4-dihydro-1H-isoquinolin-2-yl]-2,2-dimethyl-propan-1-one]: the affinity, expressed as Ki, was 15 nM.

In turn, `O=C(c1ccc2c(c1)CCN(C(=O)c1ccccc1Cl)C2)N1CCN(C2CCC2)CC1` [Example 42, (2-Chloro-phenyl)-[6-(4-cyclobutyl-piperazine-1-carbonyl)-3,4-dihydro-1H-isoquinolin-2-yl]-methanone] yielded an inhibition constant (Ki) of 10 nM.

For the compound `O=C(CC1CCCC1)N1CCc2cc(C(=O)N3CCN(C4CCC4)CC3)ccc2C1` [Example 43, 1-[6-(4-Cyclobutyl-piperazine-1-carbonyl)-3,4-dihydro-1H-isoquinolin-2-yl]-2-cyclopentyl-ethanone], the affinity corresponds to a Ki of 20 nM.

In the case of `O=C(c1ccc2c(c1)CCN(C(=O)c1ccoc1)C2)N1CCN(C2CCC2)CC1` [Example 44, [6-(4-Cyclobutyl-piperazine-1-carbonyl)-3,4-dihydro-1H-isoquinolin-2-yl]-furan-3-yl-methanone], the Ki was 19 nM.

As for `CC(C)(C)C(=O)N1CCc2cc(C(=O)N3CCC[C@H]3CN3CCCC3)ccc2C1` [Example 47, (S)-2,2-Dimethyl-1-[6-(2-pyrrolidin-1-ylmethyl-pyrrolidine-1-carbonyl)-3,4-dihydro-1H-isoquinolin-2-yl]-propan-1-one], the affinity corresponds to a Ki of 16 nM.

In the case of `O=C(c1ccccc1)N1CCc2cc(C(=O)N3CCC[C@H]3CN3CCCC3)ccc2C1` [Example 48, (S)-Phenyl-[6-(2-pyrrolidin-1-ylmethyl-pyrrolidine-1-carbonyl)-3,4-dihydro-1H-isoquinolin-2-yl]-methanone], the affinity corresponds to a Ki of 18 nM.

`CC(C)(C)c1ccc(C(=O)N2CCc3cc(C(=O)N4CCC[C@H]4CN4CCCC4)ccc3C2)cc1` [Example 49, (S)-(4-tert-Butyl-phenyl)-[6-(2-pyrrolidin-1-ylmethyl-pyrrolidine-1-carbonyl)-3,4-dihydro-1H-isoquinolin-2-yl]-methanone] displayed a Ki of 46 nM.

For `O=C(c1ccccc1Cl)N1CCc2cc(C(=O)N3CCC[C@H]3CN3CCCC3)ccc2C1` [Example 50, (S)-(2-Chloro-phenyl)-[6-(2-pyrrolidin-1-ylmethyl-pyrrolidine-1-carbonyl)-3,4-dihydro-1H-isoquinolin-2-yl]-methanone], the Ki is 12 nM.

For `O=C(c1cccc(Cl)c1)N1CCc2cc(C(=O)N3CCC[C@H]3CN3CCCC3)ccc2C1` [Example 51, (S)-(3-Chloro-phenyl)-[6-(2-pyrrolidin-1-ylmethyl-pyrrolidine-1-carbonyl)-3,4-dihydro-1H-isoquinolin-2-yl]-methanone], the affinity corresponds to a Ki of 14 nM.

Compound `N#Cc1cccc(C(=O)N2CCc3cc(C(=O)N4CCC[C@H]4CN4CCCC4)ccc3C2)c1` [Example 52, (S)-3-[6-(2-Pyrrolidin-1-ylmethyl-pyrrolidine-1-carbonyl)-3,4-dihydro-1H-isoquinoline-2-carbonyl]-benzonitrile] gave a Ki of 15 nM.

`N#Cc1ccc(C(=O)N2CCc3cc(C(=O)N4CCC[C@H]4CN4CCCC4)ccc3C2)cc1` [Example 53, (S)-4-[6-(2-Pyrrolidin-1-ylmethyl-pyrrolidine-1-carbonyl)-3,4-dihydro-1H-isoquinoline-2-carbonyl]-benzonitrile] returned a Ki of 9 nM.

`Cc1ccccc1C(=O)N1CCc2cc(C(=O)N3CCC[C@H]3CN3CCCC3)ccc2C1` [Example 54, (S)-[6-(2-Pyrrolidin-1-ylmethyl-pyrrolidine-1-carbonyl)-3,4-dihydro-1H-isoquinolin-2-yl]-o-tolyl-methanone] returned a Ki of 9 nM.

Take `Cc1ccc(C(=O)N2CCc3cc(C(=O)N4CCC[C@H]4CN4CCCC4)ccc3C2)cc1` [Example 55, (S)-[6-(2-Pyrrolidin-1-ylmethyl-pyrrolidine-1-carbonyl)-3,4-dihydro-1H-isoquinolin-2-yl]-p-tolyl-methanone]: affinity was put at a Ki of 22 nM.

Regarding `O=C(c1ccccc1F)N1CCc2cc(C(=O)N3CCC[C@H]3CN3CCCC3)ccc2C1` [Example 56, (S)-(2-Fluoro-phenyl)-[6-(2-Pyrrolidin-1-ylmethyl-pyrrolidine-1-carbonyl)-3,4-dihydro-1H-isoquinolin-2-yl]-methanone], the Ki was 23 nM.

The compound `O=C(c1cccc(F)c1)N1CCc2cc(C(=O)N3CCC[C@H]3CN3CCCC3)ccc2C1` [Example 57, (S)-(3-Fluoro-phenyl)-[6-(2-pyrrolidin-1-ylmethyl-pyrrolidine-1-carbonyl)-3,4-dihydro-1H-isoquinolin-2-yl]-methanone] had a Ki of 14 nM.

For the compound `O=C(c1ccc(F)cc1)N1CCc2cc(C(=O)N3CCC[C@H]3CN3CCCC3)ccc2C1` [Example 58, (S)-(4-Fluoro-phenyl)-[6-(2-pyrrolidin-1-ylmethyl-pyrrolidine-1-carbonyl)-3,4-dihydro-1H-isoquinolin-2-yl]-methanone], the Ki was 17 nM.

`COc1cccc(C(=O)N2CCc3cc(C(=O)N4CCC[C@H]4CN4CCCC4)ccc3C2)c1` [Example 59, (S)-(3-Methoxy-phenyl)-[6-(2-Pyrrolidin-1-ylmethyl-pyrrolidine-1-carbonyl)-3,4-dihydro-1H-isoquinolin-2-yl]-methanone] had a Ki of 12 nM.

Take `COc1ccc(C(=O)N2CCc3cc(C(=O)N4CCC[C@H]4CN4CCCC4)ccc3C2)cc1` [Example 60, (S)-(4-Methoxy-phenyl)-[6-(2-pyrrolidin-1-ylmethyl-pyrrolidine-1-carbonyl)-3,4-dihydro-1H-isoquinolin-2-yl]-methanone]: the Ki came out at 21 nM.

`COc1ccc(CC(=O)N2CCc3cc(C(=O)N4CCC[C@H]4CN4CCCC4)ccc3C2)cc1` [Example 61] registered a Ki of 7 nM.

For `O=C(c1ccc2c(c1)CCN(C(=O)c1cccc(F)c1)C2)N1CCN(C2CCC2)CC1` [Example 62, (4-Cyclobutyl-piperazin-1-yl)-[2-(3-fluoro-benzoyl)-1,2,3,4-tetrahydro-isoquinolin-6-yl]-methanone], the affinity corresponds to a Ki of 24 nM.

`CCC(=O)N1CCc2cc(C(=O)N3CCN(C4CCCC4)CC3)ccc2C1` [Example 63, 1-[6-(4-Cyclopentyl-piperazine-1-carbonyl)-3,4-dihydro-1H-isoquinolin-2-yl]-propan-1-one] had a Ki of 61 nM.

In turn, `CC(C)(C)C(=O)N1CCc2cc(C(=O)N3CCN(C4CCCC4)CC3)ccc2C1` [Example 64, 1-[6-(4-Cyclopentyl-piperazine-1-carbonyl)-3,4-dihydro-1H-isoquinolin-2-yl]-2,2-dimethyl-propan-1-one] registered a Ki of 100 nM.

As to `O=C(c1ccc2c(c1)CCN(C(=O)c1ccccc1)C2)N1CCN(C2CCCC2)CC1` [Example 65, (2-Benzoyl-1,2,3,4-tetrahydro-isoquinolin-6-yl)-(4-cyclopentyl-piperazin-1-yl)-methanone], the affinity corresponds to a Ki of 100 nM.

Compound `O=C(c1ccc2c(c1)CCN(C(=O)c1ccccc1F)C2)N1CCN(C2CCCC2)CC1` [Example 66, (4-Cyclopentyl-piperazin-1-yl)-[2-(2-fluoro-benzoyl)-1,2,3,4-tetrahydro-isoquinolin-6-yl]-methanone] registered a Ki of 43 nM.

`O=C(c1ccc2c(c1)CCN(C(=O)c1ccc(F)cc1)C2)N1CCN(C2CCCC2)CC1` [Example 67, (4-Cyclopentyl-piperazin-1-yl)-[2-(4-fluoro-benzoyl)-1,2,3,4-tetrahydro-isoquinolin-6-yl]-methanone]: the affinity, expressed as Ki, was 53 nM.

The compound `O=C(c1ccc2c(c1)CCN(C(=O)c1ccccc1Cl)C2)N1CCN(C2CCCC2)CC1` [Example 68, [2-(2-Chloro-benzoyl)-1,2,3,4-tetrahydro-isoquinolin-6-yl]-(4-cyclopentyl-piperazin-1-yl)-methanone] registered a Ki of 32 nM.

In the case of `O=C(c1ccc2c(c1)CCN(C(=O)c1ccc(Cl)cc1)C2)N1CCN(C2CCCC2)CC1` [Example 69, [2-(4-Chloro-benzoyl)-1,2,3,4-tetrahydro-isoquinolin-6-yl]-(4-cyclopentyl-piperazin-1-yl)-methanone], the Ki turned out to be 91 nM.

`Cc1ccc(C(=O)N2CCc3cc(C(=O)N4CCN(C5CCCC5)CC4)ccc3C2)cc1` [Example 70, (4-Cyclopentyl-piperazin-1-yl)-[2-(4-methyl-benzoyl)-1,2,3,4-tetrahydro-isoquinolin-6-yl]-methanone] displayed a Ki of 65 nM.

For `O=C(Cc1ccc(F)cc1)N1CCc2cc(C(=O)N3CCN(C4CCCC4)CC3)ccc2C1` [Example 71, 1-[6-(4-Cyclopentyl-piperazine-1-carbonyl)-3,4-dihydro-1H-isoquinolin-2-yl]-2-(4-fluoro-phenyl)-ethanone], the affinity, expressed as Ki, was 48 nM.

In turn, `O=C(c1ccc2c(c1)CCN(C(=O)c1ccccc1F)C2)N1CCN(C2CCCCC2)CC1` [Example 72, (4-Cyclohexyl-piperazin-1-yl)-[2-(2-fluoro-benzoyl)-1,2,3,4-tetrahydro-isoquinolin-6-yl]-methanone] came in with an inhibitory constant (Ki) of 80 nM.

Take `O=C(c1ccc2c(c1)CCN(C(=O)c1cccc(F)c1)C2)N1CCN(C2CCCCC2)CC1` [Example 73, (4-Cyclohexyl-piperazin-1-yl)-[2-(3-fluoro-benzoyl)-1,2,3,4-tetrahydro-isoquinolin-6-yl]-methanone]: the Ki is 109 nM.

For `O=C(c1ccc2c(c1)CCN(C(=O)c1ccc(F)cc1)C2)N1CCN(C2CCCCC2)CC1` [Example 74, (4-Cyclohexyl-piperazin-1-yl)-[2-(4-fluoro-benzoyl)-1,2,3,4-tetrahydro-isoquinolin-6-yl]-methanone], the Ki amounted to 109 nM.

`O=C(c1ccc2c(c1)CCN(C(=O)c1ccccc1Cl)C2)N1CCN(C2CCCCC2)CC1` [Example 75, [2-(2-Chloro-benzoyl)-1,2,3,4-tetrahydro-isoquinolin-6-yl]-(4-cyclohexyl-piperazin-1-yl)-methanone] came in with an inhibition constant (Ki) of 77 nM.

Values taken from patent US20090099158A1, “TETRAHYDROISOQUINOLINE COMPOUNDS AS MODULATORS OF THE HISTAMINE H3 RECEPTOR” (priority 2007, published 2009).
